Assay: Human HepG2 cell viability assay in 384 well format
Assay type: toxicity, cell-based
Parameters: dose 125 nL, time 70.5 hour; concentration not given beside the values
Settings: HepG2 cells, read-out: Inhibition

In order of rising cytotoxicity at 70.5 h:
1. CCC(C)NC(=O)c1cccc(CNCc2csc(C(C)C)n2)c1 (stereo unspecified)  -89.9%
2. N#Cc1cc(F)ccc1NCC1CCN(S(=O)(=O)C(F)F)CC1  -14.3%
3. O=C(Nc1cccc(F)c1)C1CCN(Cc2noc(C3CC3)n2)CC1  -13.9%
4. c1nc(N2CCOCC2)ncc1-c1cncn1CCCN1CCCCC1  -13.7%
5. Cc1c(Cn2cc(Cl)c(N)n2)cnn1C  -13.5%
6. CCNC(=O)C1CCN(Cn2nc(-c3ccc(F)cc3)oc2=O)CC1  -13.2%
7. CC(C)c1nc(CCNC(=O)NCc2ccnc(N(C)C)c2)cs1  -10.2%
8. CN(C)c1cc(C(=O)N2CCCC2)ccn1  -10%
9. CCNC(=O)C1CCCN(C(=O)Nc2ccc3c(c2)CCCN3C)C1 (stereo unspecified)  -9.82%
10. O=C(Cc1ccccn1)N1CCc2ncnc(NC3CCC3)c2CC1  -9.73%
11. Cc1csc(CN2CCn3c(COc4cccnc4)cnc3C2C)n1 (stereo unspecified)  -9.58%
12. CC(C)NC(=O)CCNC(=O)CCc1cc(Cl)cs1  -8.99%
13. N#CCCN(Cc1cccnc1)C(=O)c1cccc(-n2cnnn2)c1  -8.57%
14. O=C(O)[C@@H]1CCN(C(=O)Cc2ccccn2)[C@@H]1c1ccc(F)cc1  -7.95%
15. COc1ccc(C(=O)NS(=O)(=O)c2cncc(Br)c2)c(OC)c1  -7.26%
16. CC(C)NC(=O)C1CN(C(=O)c2ccco2)CC12CCOCC2 (stereo unspecified)  -6.64%
17. CN1CCN(C2CCN(CC(=O)NCC(F)(F)F)CC2)C1=O  -6.61%
18. Cn1cc(N2Cc3nc(N4CCOCC4)ncc3C2=O)cn1  -6.6%
19. CC(C)c1nc(C2CCCN(C(=O)c3ccc4nncn4c3)C2)no1 (stereo unspecified)  -5.81%
20. COCCn1cc(CC(=O)Nc2c(C)nn(C)c2C)c2ccccc21  -5.58%
21. O=C(Nc1ccc(Br)cc1F)c1cc(CN2CCOCC2)on1  -5.21%
22. CCCC(O)CNc1cncc(Br)c1 (stereo unspecified)  -5.08%
23. O=C(c1ccc2c(c1)OCCO2)N1CCCC(n2ccnc2)C1 (stereo unspecified)  -4.86%
24. O=C1CC(c2ccsc2)c2sc(C(=O)O)c(-c3ccc(F)cc3)c2N1 (stereo unspecified)  -4.46%
25. COc1ccc(SC(C)C(=O)N2CCC(O)CC2)cc1 (stereo unspecified)  -4.3%
26. Cc1nc(C(=O)N2CCCC2c2c(C)nn(C)c2Cl)ccc1C#N (stereo unspecified)  -4.22%
27. Cc1cc(C(=O)O)cc(S(=O)(=O)Nc2ccc3c(c2)OCCO3)c1C  -3.8%
28. CCS(=O)(=O)N1CCc2ccc(NC(=O)NCc3ccccc3)cc21  -3.62%
29. O=C(c1cncnc1)N1CCCC(c2nccs2)C1 (stereo unspecified)  -3.47%
30. Cc1cccnc1CC(C)NC1CCSCC1 (stereo unspecified)  -3.02%
31. CCOc1cc([C@@H]2N[C@H](c3nccs3)Cc3ccsc32)ccc1OC  -3%
32. Cc1cc(CN2CCc3nn(C)c(=O)cc3C2)no1  -2.94%
33. Cc1nnc(N2C[C@H](OCCCn3cccn3)[C@H]3OCCC[C@H]32)s1  -2.53%
34. O=C(Nc1ccc(-n2cncn2)nc1)N(CC1CCOC1)C1CC1 (stereo unspecified)  -1.97%
35. Cn1cc(CN2CCc3c(COCC4CC4)cncc3C2)cn1  -1.91%
36. c1cnn(-c2ccc(CN3CCCC(Cn4cncn4)C3)cc2)c1 (stereo unspecified)  -1.71%
37. COc1c(CNCc2ccccc2Cn2cncn2)c(C)nn1C  -1.28%
38. CCCc1ccc(C(=O)N2CCc3c(nc(C)nc3N(C)C)C2)cc1  -0.957%
39. CCC(CC)C(=O)NCCc1ccn(-c2ccccc2)n1  -0.813%
40. CCS(=O)(=O)N1C[C@H]2CN(CC3CC3)C(=O)[C@H]2C1  -0.251%
41. O=C(CN1CCN(c2ccnc3c(F)ccc(F)c23)CC1)NC1CC1  0.111%
42. COC[C@H]1CNC(=O)[C@@H]2CCN(Cc3cccc(C)n3)CC[C@H]12  0.496%
43. CCn1nc(C)cc1C(=O)OCC1CC(=O)N(Cc2ccccc2)C1 (stereo unspecified)  0.617%
44. CCc1noc(CN(CC)C(=O)CC2C(=O)NCCN2CC(C)(C)C)n1 (stereo unspecified)  0.786%
45. COc1cccc(S(=O)(=O)CCN2CCN(CC(F)F)CC2)c1  1.26%
46. COCCS(=O)(=O)NC(=O)c1nnn(-c2ccc(F)cc2)c1C1CC1  2%
47. COCCCNC(=O)Cc1cc(-c2ccc(Cl)cc2)on1  3.59%
48. CCOc1ncccc1C(=O)N1CCN(C)C2(CCN(C)CC2)C1  4.53%
49. Cc1ccc(NC(=O)CNC(C)CN2CCCCC2)c(F)c1 (stereo unspecified)  6.42%
50. CCCNC(=O)NCc1nc(C)c(C)o1  7.79%
51. COCCCC1(CO)CCCN(Cc2ccc(F)c(OC)c2)C1 (stereo unspecified)  9.96%
52. COc1ccc(CN2CC(O)CN(C(=O)OCC(C)C)CC2=O)cc1 (stereo unspecified)  14.8%
53. CCOCCN1CCN(Cc2nc(C3CC3)no2)CC1CC (stereo unspecified)  18.8%
54. O=C(NCC1CC1)[C@H]1C[C@H]2OCC[C@H]2N(Cc2ccoc2)C1  22.9%
55. COc1ccc(CNC(=O)C(NC(=O)Cc2ccccc2)C(C)C)cn1 (stereo unspecified)  30.6%
56. CC(C)c1nc(O)c2nnn(C[C@H]3CCCN(Cc4cccs4)C3)c2n1  32.6%
